How the values were obtained:
Test in all cases: cells
Design in all cases: species or system panel of human cancer cell lines; Eurofins OncoPanel proliferation; nuclei count by high-content fluorescence imaging, 10-point dose response
JeKo-1 = settings: Homo sapiens, JeKo-1, 72 h, cell count, 3 days
Method in brief: (§1)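 Ten half-log concentrations from 100 μM (0.1% DMSO max) applied one day post-seeding, 3-day exposure at 37°C; untreated time-zero plate for GI50. Readout is nuclear cell count by automated fluorescence imaging, giving EC50, IC50, GI50 and 0–10 activity area.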

NCIH441 = settings: Homo sapiens, NCI-H441, 72 h, cell count, 3 days
Method in brief: as §1

DMS114 = settings: Homo sapiens, DMS-114, 72 h, cell count, 3 days
Method in brief: as §1

Mia PaCa-2 = settings: Homo sapiens, MIA PaCa-2, 72 h, cell count, 3 days
Method in brief: as §1

Y79 = settings: Homo sapiens, Y79, 72 h, cell count, 3 days
Method in brief: as §1

Ramos (RA 1) = settings: Homo sapiens, Ramos, 72 h, cell count, 3 days
Method in brief: as §1

DK-MG = settings: 72 h, cell count, 3 days
Method in brief: as §1

SW480 = settings: Homo sapiens, SW480, 72 h, cell count, 3 days
Method in brief: as §1

A-704 = settings: Homo sapiens, A704, 72 h, cell count, 3 days
Method in brief: as §1

A172 = settings: Homo sapiens, A 172, 72 h, cell count, 3 days
Method in brief: as §1

IM-9 = settings: Homo sapiens, IM-9, 72 h, cell count, 3 days
Method in brief: as §1

MG-63 = settings: Homo sapiens, MG-63, 72 h, cell count, 3 days
Method in brief: as §1

ARH-77 = settings: Homo sapiens, ARH-77, 72 h, cell count, 3 days
Method in brief: as §1

SNU-1 = settings: Homo sapiens, SNU1, 72 h, cell count, 3 days
Method in brief: as §1

[1] = 50% of maximum possible response

Question: `C[C@@H]1CC(=O)NN=C1c1ccc(NN=C(C#N)C#N)cc1` [levosimendan] was tested. Which IC50 (JeKo-1; [1]) did it give?
Answer: 24.7 µM

Question: And the GI50 (JeKo-1; corrected for time zero)?
Answer: 20.9 µM

Question: And the EC50 (JeKo-1; curve inflection point)?
Answer: 24.6 µM

Question: What about the IC50 (NCIH441; [1]) of the same compound?
Answer: > 100 µM

Question: And the GI50 (NCIH441; corrected for time zero)?
Answer: 31.9 µM

Question: And the EC50 (NCIH441; curve inflection point)?
Answer: > 100 µM

Question: What about the IC50 (DMS114; [1]) of the same compound?
Answer: 50.7 µM

Question: And the GI50 (DMS114; corrected for time zero)?
Answer: 18.9 µM

Question: What about the EC50 (DMS114; curve inflection point) of the same compound?
Answer: 50.7 µM

Question: And the IC50 (Mia PaCa-2; [1])?
Answer: 11 µM

Question: What about the GI50 (Mia PaCa-2; corrected for time zero) of the same compound?
Answer: 9.38 µM

Question: And the EC50 (Mia PaCa-2; curve inflection point)?
Answer: 9.92 µM

Question: What about the IC50 (Y79; [1]) of the same compound?
Answer: 36.2 µM

Question: What about the GI50 (Y79; corrected for time zero) of the same compound?
Answer: 16 µM

Question: What about the EC50 (Y79; curve inflection point) of the same compound?
Answer: 32.8 µM

Question: What about the IC50 (Ramos (RA 1); [1]) of the same compound?
Answer: 24.1 µM

Question: And the GI50 (Ramos (RA 1); corrected for time zero)?
Answer: 21.2 µM

Question: What about the EC50 (Ramos (RA 1); curve inflection point) of the same compound?
Answer: 24.1 µM

Question: And the IC50 (DK-MG; [1])?
Answer: > 100 µM

Question: What about the GI50 (DK-MG; corrected for time zero) of the same compound?
Answer: 49.4 µM

Question: What about the EC50 (DK-MG; curve inflection point) of the same compound?
Answer: > 100 µM

Question: And the IC50 (SW480; [1])?
Answer: 15.3 µM

Question: What about the GI50 (SW480; corrected for time zero) of the same compound?
Answer: 10.8 µM

Question: And the EC50 (SW480; curve inflection point)?
Answer: 13.1 µM

Question: And the IC50 (A-704; [1])?
Answer: > 100 µM

Question: What about the GI50 (A-704; corrected for time zero) of the same compound?
Answer: 64.7 µM

Question: What about the EC50 (A-704; curve inflection point) of the same compound?
Answer: > 100 µM

Question: And the IC50 (A172; [1])?
Answer: 55.8 µM

Question: And the GI50 (A172; corrected for time zero)?
Answer: 44.8 µM

Question: And the EC50 (A172; curve inflection point)?
Answer: 55.8 µM

Question: And the IC50 (IM-9; [1])?
Answer: 41 µM

Question: And the GI50 (IM-9; corrected for time zero)?
Answer: 35.5 µM

Question: And the EC50 (IM-9; curve inflection point)?
Answer: 41 µM

Question: What about the IC50 (MG-63; [1]) of the same compound?
Answer: 19.5 µM

Question: And the GI50 (MG-63; corrected for time zero)?
Answer: 14.2 µM

Question: What about the EC50 (MG-63; curve inflection point) of the same compound?
Answer: 16.9 µM

Question: What about the IC50 (ARH-77; [1]) of the same compound?
Answer: 20.3 µM

Question: And the GI50 (ARH-77; corrected for time zero)?
Answer: 16 µM

Question: What about the EC50 (ARH-77; curve inflection point) of the same compound?
Answer: 19.3 µM

Question: And the IC50 (SNU-1; [1])?
Answer: 6.31 µM

Question: What about the GI50 (SNU-1; corrected for time zero) of the same compound?
Answer: 5.53 µM

Question: What about the EC50 (SNU-1; curve inflection point) of the same compound?
Answer: 5.52 µM
